In paper PMC4595804, “A strategy to discover decoy chemokine ligands with an anti-inflammatory activity” (Scientific Reports, 2015):

Key:
Type in all cases: cell-based
CCL22 = molecular target: T1, CCL22 (Homo sapiens, UniProt O00626); test: TRIC-r calcium assay, neutraligand protocol: compound preincubated with CCL22, EGFP-CCR4+Gqi5+ HEK cells; details: for inhibition at 5 µM: compound 5 µM, read-out: Inhibition of CCL22 calcium responses (%)
T1 construct: codes for the mature CCL17 or CCL22 with an N-terminal thioredoxin-hexahistidin (TRX- (His)6) tag; thioredoxin (TRX) (N, cleaved yes); (His)6 (N, cleaved yes); made in house; host or cells: E. coli BL21 (DE3)
T1 sequence (O00626 25-93): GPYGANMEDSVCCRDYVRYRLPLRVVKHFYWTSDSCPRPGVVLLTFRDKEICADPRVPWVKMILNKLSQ
Experimental: EGFP-CCR4^+Gqi5^+HEKcells were loaded with fluorescent Ca^2+-indicator Indo-1 AM (5μM, Interchim) for 45 min at 37 °C. […] Cells (100,000 cells/well, 100μl) were seeded in black clear bottom 96-well plates (Greiner), and centrifuged at 250 × g for 5 min.
Two plates (96-well plates, Greiner) were prepared for the screen: one containing test compounds alone in order to determine their direct agonistic activity, and another one containing test compounds mixed with CCL17 or CCL22 at room temperature for 1 h (neutraligand protocol). The chemokines and test compounds were prepared at a 3× concentration, while digitonin was prepared at a 4× concentration. The CCR4 antagonist, C-021 served as control in the experiment. In the antagonist protocol, compounds were added to the cell plate (one compound per well) and incubated with cells for 30 min at room temperature, while the agonist (CCL17 or CCL22) was added to the ligand plate only.
Dye loaded cells were placed in the FlexStation 3 (Molecular Devices). […] For the primary screening, the ligands (50μl of chemokine mixed with DMSO or test compounds) were added to the cells at 40 s, followed by digitonin addition (50μl) at 100 s to the cells. Molecules were screened at a final concentration of 2μg/ml with 5 nM CCL17 or CCL22. […] The calcium response values (height of peak response over baseline) were determined. Hits were selected by comparing the response amplitude at the time of the chemokine addition ± test compound. The Z’ factor[29] was calculated according to the following equation: Z’ = 1-(3SD+ + 3SD−)/|Ave+ − Ave−|, where SD+ and Ave+ are respectively the standard deviation and the mean value of the positive controls (chemokine + DMSO), while SD− and Ave− are respectively the standard deviation and the mean value of the negative controls (HEPES-BSA (0.1%) mixed with DMSO, or cells mixed with C-021). Hit molecules were confirmed by performing concentration-response curves and their half maximal inhibitory concentration (IC50) values were calculated using the Kaleidagraph software.

human monocytes = test: Cytotoxicity in primary monocytes (Alamar Blue); details: up to 250 μM, 24 h
Experimental: the wound closure was determined as the difference between wound width at times 0 and 72h. This experiment was repeated three times.
Human primary monocytes were isolated from buffy coats of healthy human blood donors and seeded in 24-well plates (500,000 cells/ml in 1ml) for COX-1/2 activity or 96-well plates for cell viability experiments.
Cells were seeded in 96 well plates (5,000 cells/well in 200µl) for cytotoxicity testing (Alamar […]
doses). After 24h, cytotoxicity was evaluated in the wells using the Alamar Blue method. NaF (250µg/ml) was used as a control in this experiment.
Cyclooxygenase (COX) activity
COX1 mediated prostaglandin E2 (PGE2) release. Monocytes were treated with arachidonic […]
were then collected for the determination of PGE2 by enzyme immunoassay (EIA) […]
COX2 mediated prostaglandin E2 (PGE2) release. Monocytes were incubated with LPS (10U/ml) for 24h to induce COX2 protein synthesis. After renewal of medium (serum free), […]
before AA treatment. The activity of COX2 was determined by measuring PGE2 (Cayman) in the supernatants by EIA. Aspirin (10µM) and diclofenac (10µM) were used as control

CXCL12 = molecular target: T2, CXCL12 (Homo sapiens, UniProt P48061); test: TRIC-r calcium assay, neutraligand protocol, EGFP-CXCR4+ HEK cells; details: 10 μM compound, 5 nM CXCL12, EGFP-CXCR4+ HEK cells
T2 construct: (His)6; made in house; host or cells: E. coli BL21 (DE3)
T2 sequence (P48061 22-93): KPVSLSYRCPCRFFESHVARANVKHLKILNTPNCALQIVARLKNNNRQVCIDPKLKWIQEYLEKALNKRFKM

SMILES	calcium response induced by WT CCL22 preincubated with compound (CCL22; 10 μM compound, 5 nM chemokine, remaining response)	inhibition at 5 µM (CCL22; HEK293) [%]	cell toxicity on human monocytes (Alamar Blue) (human monocytes)	effect on calcium responses induced by CXCL12 (CXCL12)	IC50 (CCL22; 5 nM CCL22 preincubated 1 h with compound, 21 °C, read-out: IC50 for CCL22 neutralization (calcium assay)) [µM]	inhibition at 2 µg/mL (CCL22; HEK293, 2 μg/ml compound preincubated 1 h with 5 nM CCL22, read-out: inhibition of CCL22-induced calcium responses (primary screen)) [%]
CC(C)=CCn1cnc2c1c(=O)n(C)c(=O)n2C [GPN279, 1,3-dimethyl-7-(3-methylbut-2-enyl)-1H-purine-2,6(3H, 7H)-dione]	neither inhibited WT nor CCL22 mutants	0	absence of cell toxicity	no effect		
O=C(OCC(O)CO)c1ccccc1O (stereo not drawn) [GPN136, 2,3-dihydroxypropyl 2-hydroxybenzoate]		35 ± 8	absence of cell toxicity	no effect	11.6 ± 2.5	46
